Laboratory results taken from PMC8151276, “An Integrated Approach toward NanoBRET Tracers for Analysis of GPCR Ligand Engagement” (Molecules, 2021).

Legend:
Format in all cases: binding
SSTR4 = target: T1, SSTR4 (Homo sapiens, UniProt P31391); assay: NanoBRET screen HiBiT-SSTR4 in HEK293; details: SSTR4
T1 construct: purchased Promega (in-house HiBiT-GPCR construct library, NanoBRET)
Protocol: (§1) Each tracer candidate was screened across the entire library of HiBiT-GPCR constructs using NanoBRET as the detection modality. As depicted in Figure 4A, the specificity of interactions was evaluated through decrease in BRET due to competitive displacement of a bound tracer by excess parental compound. Each tracer was analyzed for binding to each HiBiT-GPCR fusion in the absence and in the presence of competing parental compound. Briefly, HEK293 cells were transfected with HiBiT-GPCR constructs diluted into promoterless DNA to reduce expression and maximize translocation to the cell surface. Each tracer candidate was then screened at concentrations of 1 μM and 0.1 μM across cells expressing these fusions. Cells were treated for 1.5 h with tracer either alone or in the presence of 20 μM competing parental compound (i.e., control). BRET was measured upon addition of purified LgBiT and subsequent complementation with HiBiT genetically fused to a GPCR. The specificity of interactions was assessed through a decrease in BRET signal due to competitive displacement of the bound tracer. To further gauge the robustness of these interactions, the fold response over the control (i.e., BRETtracer/BRETcontrol) was calculated. We chose a 1.5-fold response, which translates to ≥7-fold signal over noise as the minimal threshold required to score an interaction as positive. […]. Below we highlight the screening results obtained for our exemplary fluorescent tracers based on Clozapine, Amitriptyline and AZD1283.
(§2) HiBiT-GPCR DNA constructs were diluted in 10 mM Tris pH 8 to a final concentration of 0.01 μg/μL, arrayed in 96-well plates and stored at −20 °C. For transfection, HEK293 cells were suspended in Opti-MEM (without phenol red) supplemented with 2% fetal bovine serum (Seradigm) and 100 units/mL penicillin–streptomycin (Gibco) at a final concentration of 220,000 cells/mL and dispensed into white 96-well plates at 90 μL/well. Subsequent transfections and screens were carried using an Agilent Bravo Automated Liquid Handling Platform. First, the 96-well HiBiT DNA arrays were diluted 25-fold in Opti-MEM (without serum or phenol red) to a final concentration of 0.0004 μg/μL and 20 μL of the diluted DNAs were transferred into new 96-well plates. Next, promoterless carrier DNA (1 μg/μL) was diluted 25-fold (0.04 μg/μL) and then dispensed into the diluted arrays at 20 μL/well. Following brief mixing, Viafect transfection reagent (Promega) diluted 16-fold into Opti-MEM was dispensed into the plates at 40 μL/well. After mixing by pipetting, plates were incubated for 10 min on the pipetting station deck. The DNA-transfection reagent complexes were then added to plates containing cells. To facilitate the screen, 10 μL of DNA-transfection reagent complexes were added in duplicates to the top 4 and bottom 4 rows, resulting in two identical 48-well arrays per plate. Plates with transfected cells were incubated for 18–20 h at 37 °C/5% CO2. A screen of each tracer across the entire library using two different concentrations requires duplicate plates of transfected cells. Depending on the number of tracers being screened, transfections can be scaled up using the same ratios. The next day, for each tracer, four 20× screening solutions in tracer dilution buffer (Promega) were prepared: two duplicates at final concentration of 20 μM and two duplicates at a final concentration of 2 μM. A competing unmodified compound was added to one of each duplicate at a final concentration of 400 μM. The four resulting solutions were diluted 4-fold in Opti-MEM without serum or phenol red to generate 5× solutions (5 µM and 0.5 µM tracer +/− 100 μM competing compound). To screen the library, a BioTek MultiFlo FX liquid dispenser was used to dispense 22.5 µL of tracer solution to the top 4 rows and 22.5 µL tracer + competing compound solution to the 4 bottom rows. Plates were briefly mixed on an orbital shaker and incubated for 1.5 h at room temperature. […]

PTGER2 = target: T2, PTGER2 (Homo sapiens, UniProt P43116); assay: NanoBRET screen HiBiT-PTGER2 in HEK293; details: PTGER2
T2 construct: purchased Promega (in-house HiBiT-GPCR construct library, NanoBRET)
T2 sequence (P43116 whole entry): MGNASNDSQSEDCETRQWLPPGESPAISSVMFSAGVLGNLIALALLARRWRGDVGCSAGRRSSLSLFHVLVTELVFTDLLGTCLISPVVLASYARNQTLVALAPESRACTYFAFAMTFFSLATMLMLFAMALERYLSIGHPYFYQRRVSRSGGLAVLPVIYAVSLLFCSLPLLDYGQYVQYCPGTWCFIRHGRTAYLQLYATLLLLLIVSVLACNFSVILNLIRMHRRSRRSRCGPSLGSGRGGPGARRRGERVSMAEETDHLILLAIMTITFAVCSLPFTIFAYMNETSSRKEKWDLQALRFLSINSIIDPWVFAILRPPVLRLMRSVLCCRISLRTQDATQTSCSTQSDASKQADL
Protocol: as §1, §2

GRM4 = target: T3, GRM4 (Homo sapiens, UniProt Q14833); assay: NanoBRET screen HiBiT-GRM4 in HEK293; details: GRM4
T3 construct: purchased Promega (in-house HiBiT-GPCR construct library, NanoBRET)
T3 sequence (Q14833 33-912): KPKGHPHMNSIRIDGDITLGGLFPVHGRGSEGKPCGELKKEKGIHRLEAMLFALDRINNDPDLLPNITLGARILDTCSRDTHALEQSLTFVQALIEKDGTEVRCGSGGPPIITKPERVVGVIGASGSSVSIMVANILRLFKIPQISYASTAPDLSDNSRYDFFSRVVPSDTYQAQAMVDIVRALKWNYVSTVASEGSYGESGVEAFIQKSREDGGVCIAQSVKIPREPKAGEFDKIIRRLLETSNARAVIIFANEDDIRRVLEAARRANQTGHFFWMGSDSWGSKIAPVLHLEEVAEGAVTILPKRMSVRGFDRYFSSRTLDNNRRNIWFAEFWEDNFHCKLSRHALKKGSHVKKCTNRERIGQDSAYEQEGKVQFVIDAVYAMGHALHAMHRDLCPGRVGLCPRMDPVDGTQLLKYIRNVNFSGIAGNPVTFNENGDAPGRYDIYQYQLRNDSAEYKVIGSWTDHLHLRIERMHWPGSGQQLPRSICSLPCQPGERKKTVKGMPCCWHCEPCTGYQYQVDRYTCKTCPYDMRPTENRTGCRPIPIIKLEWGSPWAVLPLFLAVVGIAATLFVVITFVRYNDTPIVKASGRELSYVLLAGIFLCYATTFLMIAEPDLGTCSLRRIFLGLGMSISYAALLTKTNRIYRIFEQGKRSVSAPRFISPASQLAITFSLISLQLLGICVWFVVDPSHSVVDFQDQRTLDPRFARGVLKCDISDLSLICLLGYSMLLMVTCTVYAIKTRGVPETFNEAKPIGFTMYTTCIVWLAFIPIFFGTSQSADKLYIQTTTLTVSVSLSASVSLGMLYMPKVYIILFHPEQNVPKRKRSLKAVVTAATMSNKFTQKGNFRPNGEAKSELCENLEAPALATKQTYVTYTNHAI
Protocol: as §1, §2

PTAFR = target: T4, PTAFR (Homo sapiens, UniProt P25105); assay: NanoBRET screen HiBiT-PTAFR in HEK293; details: PTAFR
T4 construct: purchased Promega (in-house HiBiT-GPCR construct library, NanoBRET)
T4 sequence (P25105 whole entry): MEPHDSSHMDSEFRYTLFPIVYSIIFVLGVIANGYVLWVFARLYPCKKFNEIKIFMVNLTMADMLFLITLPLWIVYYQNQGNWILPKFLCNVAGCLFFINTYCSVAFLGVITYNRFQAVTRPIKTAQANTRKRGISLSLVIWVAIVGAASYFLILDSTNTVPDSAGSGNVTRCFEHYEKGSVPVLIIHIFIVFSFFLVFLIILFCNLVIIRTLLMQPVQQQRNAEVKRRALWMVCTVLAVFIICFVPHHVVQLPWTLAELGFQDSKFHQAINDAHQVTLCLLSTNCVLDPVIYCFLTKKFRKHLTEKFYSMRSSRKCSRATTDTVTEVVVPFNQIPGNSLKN
Protocol: as §1, §2

CCKBR = target: T5, CCKBR (Homo sapiens, UniProt P32239); assay: NanoBRET screen HiBiT-CCKBR in HEK293; details: CCKBR
T5 construct: purchased Promega (in-house HiBiT-GPCR construct library, NanoBRET)
T5 sequence (P32239 1-447): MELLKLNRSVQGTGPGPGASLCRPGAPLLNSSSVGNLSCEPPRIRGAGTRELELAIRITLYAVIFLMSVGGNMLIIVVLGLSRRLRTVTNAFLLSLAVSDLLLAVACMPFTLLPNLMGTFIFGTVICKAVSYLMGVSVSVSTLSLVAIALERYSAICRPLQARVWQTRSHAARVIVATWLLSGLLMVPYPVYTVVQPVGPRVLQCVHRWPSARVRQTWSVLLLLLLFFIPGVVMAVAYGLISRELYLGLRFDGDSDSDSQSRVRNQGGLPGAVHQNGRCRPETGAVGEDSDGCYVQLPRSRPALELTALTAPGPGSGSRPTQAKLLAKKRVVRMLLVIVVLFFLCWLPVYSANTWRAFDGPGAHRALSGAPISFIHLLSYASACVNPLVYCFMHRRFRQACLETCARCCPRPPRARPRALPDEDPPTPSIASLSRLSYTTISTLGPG
Protocol: as §1, §2

FZD2 = target: T6, FZD2 (Homo sapiens, UniProt Q14332); assay: NanoBRET screen HiBiT-FZD2 in HEK293; details: FZD2
T6 construct: purchased Promega (in-house HiBiT-GPCR construct library, NanoBRET)
T6 sequence (Q14332 24-565): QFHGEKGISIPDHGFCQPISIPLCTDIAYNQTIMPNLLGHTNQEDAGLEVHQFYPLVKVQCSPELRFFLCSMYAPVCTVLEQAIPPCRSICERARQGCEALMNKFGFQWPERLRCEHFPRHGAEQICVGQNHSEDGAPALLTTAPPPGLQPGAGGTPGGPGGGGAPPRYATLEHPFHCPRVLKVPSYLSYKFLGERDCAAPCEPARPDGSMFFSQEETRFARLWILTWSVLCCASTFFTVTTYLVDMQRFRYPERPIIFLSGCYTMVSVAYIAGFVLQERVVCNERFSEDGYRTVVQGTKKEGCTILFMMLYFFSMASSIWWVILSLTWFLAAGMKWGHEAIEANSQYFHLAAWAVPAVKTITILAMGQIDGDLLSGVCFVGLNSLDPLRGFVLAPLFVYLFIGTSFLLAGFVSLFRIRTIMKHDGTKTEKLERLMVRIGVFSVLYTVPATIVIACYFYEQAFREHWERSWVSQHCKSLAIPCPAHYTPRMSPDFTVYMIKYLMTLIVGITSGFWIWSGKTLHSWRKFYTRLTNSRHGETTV
Protocol: as §1, §2

T1 sequence (P31391 whole entry): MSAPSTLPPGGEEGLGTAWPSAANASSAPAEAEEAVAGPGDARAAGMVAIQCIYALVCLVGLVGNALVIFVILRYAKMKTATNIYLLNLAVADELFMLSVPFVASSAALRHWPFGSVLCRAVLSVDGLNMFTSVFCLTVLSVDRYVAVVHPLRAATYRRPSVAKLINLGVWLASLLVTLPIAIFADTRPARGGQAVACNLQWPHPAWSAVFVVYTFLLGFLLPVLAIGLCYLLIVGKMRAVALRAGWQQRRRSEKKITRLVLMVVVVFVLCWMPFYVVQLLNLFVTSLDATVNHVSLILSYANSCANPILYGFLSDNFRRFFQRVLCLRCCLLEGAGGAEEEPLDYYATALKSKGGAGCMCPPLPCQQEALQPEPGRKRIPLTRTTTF

CC(C)N(CC[C@H](c1ccccc1)c1cc(CCNC(=O)c2ccc(CNC(=O)CCc3ccc4n3[B-](F)(F)[N+]3=C(c5ccc[nH]5)C=CC3=C4)cc2)ccc1O)C(C)C [Tolterodine-BZ-NB590]
NanoBRET Fold Response (SSTR4; tracer 0.1μM): 0.99 | NanoBRET Fold Response (SSTR4; tracer 1μM): 0.93 | NanoBRET Fold Response (PTGER2; tracer 0.1μM): 1.04 | NanoBRET Fold Response (PTGER2; tracer 1μM): 0.97 | NanoBRET Fold Response (GRM4; tracer 0.1μM): 1.02 | NanoBRET Fold Response (GRM4; tracer 1μM): 0.99 | NanoBRET Fold Response (PTAFR; tracer 0.1μM): 0.93 | NanoBRET Fold Response (PTAFR; tracer 1μM): 0.85 | NanoBRET Fold Response (CCKBR; tracer 0.1μM): 0.97 | NanoBRET Fold Response (CCKBR; tracer 1μM): 1.06 | NanoBRET Fold Response (FZD2; tracer 0.1μM): 0.95 | NanoBRET Fold Response (FZD2; tracer 1μM): 1.01

CN1CCN(C2=Nc3cc(Cl)ccc3Nc3ccc(CNC(=O)CCOCCOCCOCCOCCNC(=O)CCc4ccc5n4[B-](F)(F)[N+]4=C(c6ccc[nH]6)C=CC4=C5)cc32)CC1 [Clozapine-b-2-NB590]
NanoBRET Fold Response (SSTR4; 0.1μM tracer): 0.97 | NanoBRET Fold Response (SSTR4; 1μM tracer): 1.02 | NanoBRET Fold Response (PTGER2; 0.1μM tracer): 1.01 | NanoBRET Fold Response (PTGER2; 1μM tracer): 0.98 | NanoBRET Fold Response (GRM4; 0.1μM tracer): 1.05 | NanoBRET Fold Response (GRM4; 1μM tracer): 1.03 | NanoBRET Fold Response (PTAFR; 0.1μM tracer): 1.01 | NanoBRET Fold Response (PTAFR; 1μM tracer): 1.14 | NanoBRET Fold Response (CCKBR; 0.1μM tracer): 0.99 | NanoBRET Fold Response (CCKBR; 1μM tracer): 1.07 | NanoBRET Fold Response (FZD2; 0.1μM tracer): 1.01 | NanoBRET Fold Response (FZD2; 1μM tracer): 1.11
